Molecular target: recombinant full-length human hydroxyacid oxidase 1 (HAO1), the equivalents of hGOX (Homo sapiens (Human), UniProt Q9UJM8)
Assay: In-vitro human glycolate oxidase (hGOX) assay (Amplex red fluorescence)
Format: biochemical
Details: 6 nM recombinant human GO, 85 μM glycolate, 10 min preincubation
Protocol: The in-vitro glycolate oxidase assay was performed using recombinant full-length human hydroxyacid oxidase 1 (HAO1), the equivalents of hGOX. […] Purified HAO1 was dissolved in assay buffer consisting of 10 mM NaCl, 110 mM KCl, 2 mM MgCl2, 50 mM HEPES (pH 7.4), and 0.01% Triton™ X-100.
The plates were incubated for 10 min at room temperature, at which point Amplex red reagent (50 μM) was added.
The fluorescence intensity signal was measured on a VariosKan LUX instrument using an excitation of 560 nm and an emission of 590 nm. The IC50 values were calculated using Graphpad Prism. The fluorescence signal of wells containing only DMSO was defined as 100% GO activity, while the fluorescence signal without the glycolate substrate was defined as 0% GO activity.

Sequence of recombinant full-length human hydroxyacid oxidase 1 (HAO1), the equivalents of hGOX (Q9UJM8 whole entry): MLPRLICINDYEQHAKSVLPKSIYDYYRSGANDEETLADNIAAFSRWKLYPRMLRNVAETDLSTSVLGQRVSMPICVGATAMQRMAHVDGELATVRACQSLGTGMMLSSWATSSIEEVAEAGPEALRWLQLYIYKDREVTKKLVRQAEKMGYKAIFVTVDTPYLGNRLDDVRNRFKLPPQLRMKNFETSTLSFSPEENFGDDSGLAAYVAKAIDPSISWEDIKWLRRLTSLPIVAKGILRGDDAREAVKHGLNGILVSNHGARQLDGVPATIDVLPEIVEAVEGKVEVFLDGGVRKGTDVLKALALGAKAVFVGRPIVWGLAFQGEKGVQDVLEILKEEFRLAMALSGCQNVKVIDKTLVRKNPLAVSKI

For `Cc1[nH]nc(Oc2cccc(C#CCC3CC3)c2)c1C(=O)O` [Example 359, 3-(3-(3-Cyclopropylprop-1-ynyl)phenoxy)-5-methyl-1H-pyrazole-4-carboxylic Acid], the IC50 was over 1000 nM.
Work on `CCOC(=O)c1nn[nH]c1Oc1cccc(C#CCC(C)C)c1` [Example 366, Ethyl 5-(3-(4-methylpent-1-ynyl)phenoxy)-1H-1,2,3-triazole-4-carboxylate] yielded an IC50 of over 1000 nM.
`O=C(O)c1nn[nH]c1Oc1ccc(C#Cc2nccs2)cc1` [Example 341, 5-(4-(2-(Thiazol-2-yl)ethynyl)phenoxy)-1H-1,2,3-triazole-4-carboxylic Acid] showed an IC50 of 28 nM.
`Cc1cccc(C#Cc2cccc(Oc3[nH]nnc3C(=O)O)c2)n1` [Example 294, 5-(3-(2-(6-Methylpyridin-2-yl)ethynyl)phenoxy)-1H-1,2,3-triazole-4-carboxylic Acid] was tested, and the IC50 was 3 nM.
`O=C(O)c1nn[nH]c1Oc1ccc(C#Cc2cn[nH]c2)cc1` [Example 178, 5-(4-(2-(1H-Pyrazol-4-yl)ethynyl)phenoxy)-1H-1,2,3-triazole-4-carboxylic Acid] gave an IC50 of 6 nM.
For `O=C(O)c1nn[nH]c1Oc1ccc(C#Cc2cccc3[nH]ncc23)cc1` [Example 327, 5-(4-(2-(1H-Indazol-4-yl)ethynyl)phenoxy)-1H-1,2,3-triazole-4-carboxylic Acid], the IC50 was 2 nM.
For `O=C(O)c1nn[nH]c1Oc1cccc(C#Cc2cccc(Cl)c2)c1` [Example 187, 5-(3-(2-(3-Chlorophenyl)ethynyl)phenoxy)-1H-1,2,3-triazole-4-carboxylic Acid], the IC50 was 1 nM.
With `Cc1ccc(C#Cc2ccc(Oc3[nH]nnc3C(=O)O)cc2)cn1` [Example 297, 5-(4-(2-(6-Methylpyridin-3-yl)ethynyl)phenoxy)-1H-1,2,3-triazole-4-carboxylic Acid] the IC50 was 3 nM.
For `O=C(O)c1nn[nH]c1Oc1ccc(C#Cc2cccnn2)cc1` [Example 339, 5-(4-(2-(Pyridazin-3-yl)ethynyl)phenoxy)-1H-1,2,3-triazole-4-carboxylic Acid], the IC50 was 4 nM.
`N#Cc1cccc(C#Cc2ccc(Oc3[nH]nnc3C(=O)O)cc2F)c1` [Example 270, 5-(4-((3-Cyanophenyl)ethynyl)-3-fluorophenoxy)-1H-1,2,3-triazole-4-carboxylic Acid] gave an IC50 of 1 nM.
In the case of `Cn1ncc2ccc(C#Cc3ccc(Oc4[nH]nnc4C(=O)O)cc3)cc21` [Example 318, 5-(4-(2-(1-Methyl-1H-indazol-6-yl)ethynyl)phenoxy)-1H-1,2,3-triazole-4-carboxylic Acid], the IC50 is reported as 2 nM.
Work on `O=C1CCC(C#Cc2cccc(Oc3[nH]nnc3C(=O)O)c2)CC1` [Example 352, 5-(3-((4-Oxocyclohexyl)ethynyl)phenoxy)-1H-1,2,3-triazole-4-carboxylic Acid] yielded an IC50 of 34 nM.
`Cn1cc(Oc2[nH]nnc2C(=O)O)cc(C#CCC2CC2)c1=O` [Example 368, 5-(5-(3-Cyclopropylprop-1-ynyl)-1,6-dihydro-1-methyl-6-oxopyridin-3-yloxy)-1H-1,2,3-triazole-4-carboxylic Acid] was tested, and the IC50 was over 1000 nM.
`CS(=O)(=O)c1cccc(C#Cc2ccc(Oc3[nH]nnc3C(=O)O)cc2)c1` [Example 254, 5-(4-(2-(3-(Methylsulfonyl)phenyl)ethynyl)phenoxy)-1H-1,2,3-triazole-4-carboxylic Acid] was tested, and the IC50 was 3 nM.
Compound `O=C(O)c1nn[nH]c1Oc1ccc(F)c(C#Cc2ccccc2)c1` [Example 259, 5-(4-Fluoro-3-(2-phenylethynyl)phenoxy)-1H-1,2,3-triazole-4-carboxylic Acid] has an IC50 of 1 nM.
`COc1cccc(C#Cc2ccc(Oc3[nH]nnc3C(=O)O)cc2)c1` [Example 281, 5-(4-(2-(3-Methoxyphenyl)ethynyl)phenoxy)-1H-1,2,3-triazole-4-carboxylic Acid] gave an IC50 of 3 nM.
`Cn1cc(C#Cc2cccc(Oc3[nH]nnc3C(=O)O)c2)ccc1=O` [Example 209, 4-(3-((1-Methyl-6-oxo-1,6-dihydropyridin-3-yl)ethynyl)phenoxy)-1H-1,2,3-triazole-5-carboxylic Acid] showed an IC50 of 8 nM.
Work on `Cn1nccc1C#Cc1cccc(Oc2[nH]nnc2C(=O)O)c1` [Example 322, 5-(3-(2-(1-Methyl-1H-pyrazol-5-yl)ethynyl)phenoxy)-1H-1,2,3-triazole-4-carboxylic Acid] yielded an IC50 of 4 nM.
`O=C(O)c1nn[nH]c1Oc1ccc(C#Cc2ccccc2)c(F)c1` [Example 146, 5-(3-Fluoro-4-(2-phenylethynyl)phenoxy)-1H-1,2,3-triazole-4-carboxylic Acid] gave an IC50 of 1 nM.
Compound `O=C(O)c1nn[nH]c1Sc1ccc(C#CCC2CC2)cc1` [Example 355, 5-(4-(3-Cyclopropylprop-1-ynyl)phenylthio)-1H-1,2,3-triazole-4-carboxylic Acid] has an IC50 of 6 nM.
In the case of `CC(C)CC#Cc1cccc([S+]([O-])c2[nH]nnc2C(=O)O)c1` (stereo not shown) [Example 374, 5-(3-(4-Methylpent-1-ynyl)phenylsulfinyl)-1H-1,2,3-triazole-4-carboxylic Acid], the IC50 is reported as over 1000 nM.
For `O=C(O)c1nn[nH]c1Nc1cccc(C#CCC2CC2)c1` [Example 363, 5-(3-(3-Cyclopropylprop-1-ynyl)phenylamino)-1H-1,2,3-triazole-4-carboxylic Acid], the IC50 was 110 nM.
In the case of `Cn1ccc(C#Cc2cccc(Oc3[nH]nnc3C(=O)O)c2)cc1=O` [Example 257, 4-(3-((1-Methyl-2-oxo-1,2-dihydropyridin-4-yl)ethynyl)phenoxy)-1H-1,2,3-triazole-5-carboxylic Acid], the IC50 is reported as 1 nM.
Compound `O=C(O)c1nn[nH]c1Oc1ccc(C#Cc2cccc3cn[nH]c23)cc1` [Example 323, 5-(4-(2-(1H-Indazol-7-yl)ethynyl)phenoxy)-1H-1,2,3-triazole-4-carboxylic Acid] has an IC50 of 5 nM.
Compound `COc1cccc(C#Cc2cccc(Oc3[nH]nnc3C(=O)O)c2)c1` [Example 287, 5-(3-(2-(3-Methoxyphenyl)ethynyl)phenoxy)-1H-1,2,3-triazole-4-carboxylic Acid] has an IC50 of 4 nM.
In the case of `CCOC(=O)c1c(Oc2ccc(C#CCC3CC3)cc2)n[nH]c1C` [Example 360, Ethyl 3-(4-(3-cyclopropylprop-1-ynyl)phenoxy)-5-methyl-1H-pyrazole-4-carboxylate], the IC50 is reported as over 1000 nM.
`CS(=O)(=O)c1cccc(C#Cc2cc(Oc3[nH]nnc3C(=O)O)ccc2F)c1` [Example 267, 5-(4-Fluoro-3-(2-(3-(methylsulfonyl)phenyl)ethynyl)phenoxy)-1H-1,2,3-triazole-4-carboxylic Acid] was tested, and the IC50 was 2 nM.
In the case of `O=C(O)c1nn[nH]c1Oc1cccc(C#Cc2cccc(F)c2)c1` [Example 279, 5-(3-(2-(3-Fluorophenyl)ethynyl)phenoxy)-1H-1,2,3-triazole-4-carboxylic Acid], the IC50 is reported as 2 nM.
Compound `Cc1[nH]nc(Oc2ccc(C#CCC3CC3)cc2)c1C(=O)O` [Example 361, 3-(4-(3-Cyclopropylprop-1-ynyl)phenoxy)-5-methyl-1H-pyrazole-4-carboxylic Acid] has an IC50 of over 1000 nM.
In the case of `O=C(O)c1nn[nH]c1Oc1ccc(C#CC(F)(F)F)cc1` [Example 335, 5-(4-(3,3,3-Trifluoroprop-1-ynyl)phenoxy)-1H-1,2,3-triazole-4-carboxylic Acid], the IC50 is reported as 23 nM.
`CCOC(=O)c1nn[nH]c1[S+]([O-])c1cccc(C#CCC(C)C)c1` (stereo not shown) [Example 373, Ethyl 5-(3-(4-methylpent-1-ynyl)phenylsulfinyl)-1H-1,2,3-triazole-4-carboxylate] gave an IC50 of over 1000 nM.
